Experimental data from patent US20130244879A1, “USE OF LIPO-CHITOOLIGOSACCHARIDES TO INITIATE EARLY FLOWERING AND FRUIT DEVELOPMENT IN PLANTS AND RELATED METHODS AND COMPOSITIONS” (NOVOZYMES BIOLOGICALS HOLDING A/S, priority 2003, published 2013).

Legend:
Format in all cases: in vivo
hot pepper = experiment: Experiment 17: effect of LCO on hot pepper flowering and fruiting; conditions: for increased early flowers over control: at 5 weeks; for increased number of early fruits over control: in 5 weeks
Method: 30-day old seedlings were transplanted into 5″ pots and 20 days later (20 DAT) plants received the first LCO spray at 2 ml/plant (50 ng/plant). The 2nd spray was conducted 3 weeks (41 DAT) after the first. Data was collected 5 weeks (55 DAT) after the first LCO application. […]

grain corn (cv. DK376) = experiment: Experiment 9: effect of LCO on grain corn yield
Text: Fertilizer (36-12-18) was applied to the corn field at a rate of 500 kg/ha before seeding. A machine planter was employed to plant the grain (cv. DK376, HU2650, Fludioxnil coated). To protect corn ears from bird damage, grain corn ears in the middle two rows were covered with plastic nets after silking. LCO was applied to corn plants at a rate of 200 L/ha for the first application 40 days after planting and at 400 L/ha for the second application 58 days after planting. The two protected middle rows of plants were harvested by a combine 152 days after planting. […] The total grain yield increased for all but the 10^−8M double application.

Impatiens = experiment: Experiment 5: foliar application of LCO to bedding plants (Impatiens)
Text: This is a growth room study. Seeds of garden plant species were selected on the basis of seed-purchase popularity (Norseco, Montreal), grown in trays of Pro-Mix (NB. trademarked name) Seeding Medium, and at some size were transplanted into trays of 36 and 32 wells containing the same medium. Growth proceeded under lights in the growth room. Some 2 weeks before expected flowering, 16 young plants were sprayed with each of various levels of LCO leaving control plants untreated. The results are presented in Table 5A on bud formation and where possible opened flowers.

Cherry tomato = experiment: Experiment 14: LCO soil application on cherry tomatoes
Method: Cherry tomato seedlings (5-week old) were transplanted into 5″ pots in the greenhouse. LCO solutions were prepared with water and 50 ml/plant was applied to the soil in the pot after transplantation. Ripened fruit (orange or red) were collected 8 weeks after transplantation.

Tomato = experiment: Experiment 16: LCO application on fruit number and weight at end of season; conditions: LCO applied once at 50 ng, 20-40 days after transplantation
Text: Tomato seedlings (6 leaf-stage) were transplanted. The plants were watered on the day they were transplanted and whenever the soil was very dry during the season. Fertilizer (20-20-20) was applied at 250 kg/ha to the tomato field before transplantation. All tomato plants were supported with sticks when they were heavily loaded with fruit. Fruit yield was finally cumulated at the end of the season 115 days after transplant.

Lipo-chitooligosaccharides [LCO]
increased early flowers over control (hot pepper; double applications): ≤ 40% | increased number of early fruits over control (hot pepper; double applications): ≤ 284% | increased early flowers over control (hot pepper; single application): up to 5% | increased number of early fruits over control (hot pepper; single application): up to 159% | Dry Yield (kg/2 rows) (grain corn (cv. DK376); 10^−7M once): 3.44 kg/2 rows | Dry yield (kg/ha) (grain corn (cv. DK376); 10^−7M once): 5730.6 kg/ha | Ears/2 rows (grain corn (cv. DK376); 10^−7M once): 37.25ab | Fresh Yield (kg/2 rows) (grain corn (cv. DK376); 10^−7M once): 4.40 kg/2 rows | Fresh Yield (kg/ha) (grain corn (cv. DK376); 10^−7M once): 7333.3 kg/ha | Dry Yield (kg/2 rows) (grain corn (cv. DK376); 10^−7M twice): 3.96 kg/2 rows | Dry yield (kg/ha) (grain corn (cv. DK376); 10^−7M twice): 6606.5 kg/ha | Ears/2 rows (grain corn (cv. DK376); 10^−7M twice): 40.00a | Fresh Yield (kg/2 rows) (grain corn (cv. DK376); 10^−7M twice): 5.03 kg/2 rows | Fresh Yield (kg/ha) (grain corn (cv. DK376); 10^−7M twice): 8383.3 kg/ha | Dry Yield (kg/2 rows) (grain corn (cv. DK376); 10^−8M once): 3.62 kg/2 rows | Dry yield (kg/ha) (grain corn (cv. DK376); 10^−8M once): 6040.4 kg/ha | Ears/2 rows (grain corn (cv. DK376); 10^−8M once): 37.00ab | Fresh Yield (kg/2 rows) (grain corn (cv. DK376); 10^−8M once): 4.57 kg/2 rows | Fresh Yield (kg/ha) (grain corn (cv. DK376); 10^−8M once): 7616.7 kg/ha | Dry Yield (kg/2 rows) (grain corn (cv. DK376); 10^−8M twice): 3.23 kg/2 rows | Dry yield (kg/ha) (grain corn (cv. DK376); 10^−8M twice): 5387.1 kg/ha | Ears/2 rows (grain corn (cv. DK376); 10^−8M twice): 32.25bc | Fresh Yield (kg/2 rows) (grain corn (cv. DK376); 10^−8M twice): 4.12 kg/2 rows | Fresh Yield (kg/ha) (grain corn (cv. DK376); 10^−8M twice): 6866.7 kg/ha | Dry Yield (kg/2 rows) (grain corn (cv. DK376); 10^−9M once): 3.77 kg/2 rows | Dry yield (kg/ha) (grain corn (cv. DK376); 10^−9M once): 6275.6 kg/ha | Ears/2 rows (grain corn (cv. DK376); 10^−9M once): 39.00ab | Fresh Yield (kg/2 rows) (grain corn (cv. DK376); 10^−9M once): 4.75 kg/2 rows | Fresh Yield (kg/ha) (grain corn (cv. DK376); 10^−9M once): 7916.7 kg/ha | Dry Yield (kg/2 rows) (grain corn (cv. DK376); 10^−9M twice): 3.57 kg/2 rows | Dry yield (kg/ha) (grain corn (cv. DK376); 10^−9M twice): 5953.5 kg/ha | Ears/2 rows (grain corn (cv. DK376); 10^−9M twice): 37.25ab | Fresh Yield (kg/2 rows) (grain corn (cv. DK376); 10^−9M twice): 4.55 kg/2 rows | Fresh Yield (kg/ha) (grain corn (cv. DK376); 10^−9M twice): 7583.3 kg/ha | Ear number over untreated control (grain corn (cv. DK376); all treatments except the 10^−8M double application): significantly increased | Total Number of Impatiens buds (Impatiens; 20 ml/16 plants of 10^−7M LCO): 71 | Total Number of Impatiens buds (Impatiens; 20 ml/16 plants of 10^−8M LCO): 65 | Total Number of Impatiens buds (Impatiens; 20 ml/16 plants of 10^−9M LCO): 85 | Total Number of Impatiens buds (Impatiens; 50 ml/16 plants of 3 × 10^−8M LCO): 66 | dose with best fruit enhancement at the early stage (Cherry tomato): 10 ng per plant | increased fruit number (Tomato): up to 33%
